Experimental findings from patent US10286039B2, “Compositions and methods for treating neutropenia” (Children's Hospital Los Angeles, priority 2014, dated 2019) are described below.

One assay has as its system neutropenic mice. As to the kind of experiment: Neutrophil recovery in CPA-induced neutropenic mice at neutrophil-decrease stage. Type of assay: in vivo, C57BL6/J mice. The method, then: To evaluate Am80 effect in vivo, we first tested half maximal effective concentration (EC50) of different human equivalent high, medium, and low doses of Am80 and GCSF (FIG. 5a) on regenerating mature neutrophils in neutropenic mice. Normal C57BL6/J mice were injected with a single dose of cyclophosphamide (CPA) to reduce mouse neutrophils. At 4 hr post-injection of CPA, mice were treated with vehicle, Am80, GCSF, or Am80-GCSF for consecutive 3 days before mice were sacrificed (FIG. 5b). […] Data represent 2 independent experiments with similar results.

Assay [1] concerns S. aureus. As to the kind of experiment: Neutrophil bactericidal activity, neutropenic mice at neutrophil-decrease stage, medium dose. Type of assay: in vivo, C57BL/6J mice. Conditions: for neutrophil induction by bacterial infection: neutrophil-decrease stage, Vetscan analysis of PB. On the procedure: FIG. 6A experimental design. C57BL/6J mice (n=19) were randomly divided into five groups (3 for control and 4 for each of experimental groups). Mouse neutropenia was induced by IP injection of CPA on day 0. After 4 hrs of CPA injection, different regimens were given to mice once a day, with Am80 by oral or GCSF by SC or vehicle by oral. Mice were challenged by 6.3×10^6 CFU of S. aureus on day 2 via tail vein injection. After 3 hrs infection, each 100 μl blood was collected from tails for analysis of initial bactericidal activity of neutrophils. The mice were sacrificed 16 hrs post-infection, by which PB and heart were harvested. (FIG. 6B) Vetscan analysis of WBC and neutrophils in PB. Except blank mice, neutrophil induction was not observed in all other groups (FIG. 6C-E). Bactericidal activities of neutrophils were determined 3 hr (FIG. 6C) and 16 hrs post-infection (FIG. 6D) in PB as well as in heart (panel E), by using blood agar analysis of viable extracellular bacteria. […] A+G: Am80-GCSF.

Assay [2] deals with S. aureus. Put plainly: Neutrophil bactericidal activity, neutropenic mice at neutrophil-decrease stage, lower dose. The assay is classed as in vivo, C57BL/6J mice. The settings on record: for neutrophil induction by bacterial infection: neutrophil-decrease stage, Vetscan analysis of PB. The method, then: Mice (C57BL6/J) were randomly divided into five groups (3 control and 4 for each experimental group, n=19 mice). C57BL/6J mice (n=19) were randomly divided into five groups (3 for control and 4 for each of experimental groups). The procedures for induction of mouse neutropenia and treatment are the same to the medium dose test (see slide 6). Mice were challenged with 6.3×10^6 CFU of S. aureus on day 2 via tail vein injection. After 3 hrs infection, each 100 μl blood was collected from tails for determining initial bactericidal activities of neutrophils. The mice were sacrificed on day 3, by which PB and spleen were harvested. (FIG. 7A). Vetscan analysis of WBC and neutrophils in PB was performed (FIG. 7B). Except blank mice, neutrophil induction was not observed in all other groups (FIG. 7C-E). Bactericidal activities of neutrophils were determined 3 hr (panel C) and 16 hrs post-infection (panel D) in PB as well as in spleen (panel E), using blood agar analysis of viable extracellular bacteria.

Assay [3] relates to S. Aureus. As to the kind of experiment: Neutrophil bactericidal activity and production, neutropenic mice at neutrophil-recovery stage, lower dose. The assay is classed as in vivo, Mice (C57BL6/J). On the procedure:
Mice (C57BL6/J) were randomly divided into five groups (3 control and 4 for each experimental group, n=19 mice). As illustrated (FIG. 8a), mice were given regimens 2 days post-CPA injection (200 mg/kg). After consecutive 3 days of treatment, mice were challenged with S. Aureus for up to 16 hrs before euthanasia. We found a significant increase of peripheral blood (PB) neutrophils in all groups after bacterial infection (FIG. 8b). PB collected at 3 and 16 hrs-post infection was used for analyzing of neutrophil bactericidal activities. […] However, with low doses of Am80-GCSF treatment, Am80 can effectively differentiate GCSF-regenerated granulocytic precursors into mature neutrophils against microbial infection. P<0.05; **: P<0.01; ***: P<0.005.

Another assay has as its system CD34+ cells. As to the kind of experiment: Western blot and gene transcription in CD34+ cells. Type of assay: cell-based. An excerpt: A novel gene transcription pattern is induced by Am80, in contrast to All-trans retinoic acid (ATRA or RA).
A general note: In western blotting, separated proteins are transferred to a membrane and probed.

Assay [4] relates to S. Aureus. As to the kind of experiment: Survival of neutropenic mice enduring continual bacteremia. Type of assay: in vivo. Conditions: treatment 24 hrs post-CPA. The method, then:
If Am80 can indeed differentiate GCSF-regenerated great amount of granulocytic precursors into mature neutrophils against infection, Am80-GCSF combination should effectively reduce infection-related mortality in cancer chemotherapy induced neutropenia. We tested this hypothesis by using neutropenic mice experiencing bacteremia through entire neutropenia period. As illustrated (FIG. 9A), mice were given different regimens 4 hrs post-CPA injection for up to day 8. S. Aureus infection was performed on day 3, and survival rate was calculated on day 9. […] To evaluate bactericidal ability of regenerated neutrophils in survived mice, the survived blank and Am80-GCSF mice on day 11 were further infected with S. Aureus for 15 min before euthanasia. A parallel analysis of freshly isolated PB with both Giemsa and Gram stains determined neutrophil phagocytosis in infected mice vs. free of bacteremia in non-infected mice (FIG. 9E). Since GCSF is usually provided to CCIN ≥24 hrs post-chemo drug, we further tested low and medium doses of Am80-GCSF treatment 24 hrs post-CPA, as illustrated (FIG. 9F, 9J), with two independent experiments for each of doses.

The next assay deals with NB4 cells. Put plainly: Proliferation, granulocytic differentiation and ROS production in NB4 cells. The settings on record: day 6, in the presence of either fMLP or PMA. Type of assay: cell-based.
For a further assay, the system named is AML BM primary blasts. As to the kind of experiment: Proliferation of primary blasts from acute myeloid leukemia patients. Type of assay: cell-based, human. The method, then: Proliferation of PB primary blasts from acute myeloid leukemia patients was assayed (FIG. 13A) and quantified P<0.05 (FIG. 13B). Granulocytic morphology of AML PB primary blasts was analyzed (FIG. 13C) and quantified; Am80 vs. G-CSF, P<4.0E-8; Am80 vs. control, P<6.02E-7 (FIG. 13D).
Proliferation of BM primary blasts from acute myeloid leukemia patients was assayed (FIG. 13E) and quantified at day 8, Am80 vs. G-CSF, P<0.008; G-CSF vs. control, P<0.032 (FIG. 13F). Granulocytic morphology of AML BM primary blasts was analyzed (FIG. 13G) and quantified; Am80 vs. G-CSF, P<9.9E-4; Am80 vs. RA, P<1.0E-4 (FIG. 13H).

Consider `CC1(C)CCC(C)(C)c2cc(NC(=O)c3ccc(C(=O)O)cc3)ccc21` [Am80, tamibarotene], for which the “sustaining neutrophil levels (PB)” value in the assay on neutropenic mice (low and medium doses, 3 days treatment from 4 hr post-CPA, compared to all other treatments) is “better EC50 effect on sustaining neutrophil levels”. Moreover, in the assay on neutropenic mice (low doses vs medium doses), the “granulocytic morphology differentiation (PB)” value is reported as “enhanced granulocytic morphology differentiation better than did medium doses”. Further, the neutrophil bactericidal activity entry in the assay on S. aureus [1] (3 hr and 16 hrs post-infection in PB and heart, viable extracellular bacteria) is on record as “significantly increased neutrophil bactericidal activity”. The “neutrophil induction by bacterial infection” value (shortened to “neutrophil induction”) in the assay with S. aureus [1] is reported as “not instigated”. In the assay with S. aureus [2] (3 hr and 16 hrs post-infection in PB and spleen, viable extracellular bacteria), the neutrophil bactericidal activity result was “greater bactericidal activity than those induced by G-CSF or Am80+GCSF”. Besides, in the assay on S. aureus [2], the “neutrophil induction” value was “not instigated”. In the assay with S. Aureus [3], the “neutrophil production in BM and PB” value was “induced least number of neutrophils in both BM and PB”. In addition, in the assay with CD34+ cells, the “C/EBPε, CD18, and granule LL-37 mRNA levels” value is “significant up-regulation”; the “p21Cip/Kip mRNA levels” value is “decrease”. In addition, in the assay on CD34+ cells (Western blot), the MAT1 fragmentation result is given as “progressive induction” and the “retinoic acid receptor (RARα) hypophosphorylation” value is recorded as “progressive induction”.

B1: GCSF: granulocyte colony-stimulating factor (protein, UniProt P09919 31-207, looked up)
Granulocyte …: TPLGPASSLPQSFLLKCLEQVRKIQGDGAALQEKLVSECATYKLCHPEELVLLGHSLGIPWAPLSSCPSQALQLAGCLSQLHSGLFLYQGLLQALEGISPELGPTLDTLQLDVADFATTIWQQMEELGMAPALQPTQGAMPAFASAFQRRAGGVLVASHLQSFLEVSYRVLRHLAQP
On to B1, for which the survival rate is on record as 12.5% in the assay with S. Aureus [4] (low-dose test, S. Aureus infection) and 11.1% in the assay on S. Aureus [4] (medium-dose test, no statistical difference between groups). Moreover, in the assay on neutropenic mice (medium dose GCSF vs low doses of Am80-GCSF), the “differentiation of 3rd layer BM cells, granulocytic morphologic analysis” value is listed as “less differentiated than those induced by low doses of Am80-GCSF”. Also, the “recovery of 3rd layer BM cells” value in the assay on neutropenic mice (medium dose, Percoll separation of bone marrow cells) is recorded as “induced highest recovery”. Moreover, the “neutrophil induction” value in the assay on S. aureus [1] and in the assay on S. aureus [2] was “not instigated” each time. The “neutrophil production in BM and PB” value in the assay with S. Aureus [3] is on record as “induced significantly more neutrophils in BM while similar amount in PB compared to Am80-GCSF”. Moreover, the “neutrophil bactericidal activity (killing assays)” value in the assay on S. Aureus [3] (PB at 3 and 16 hrs post-infection) is “significantly low bactericidal activity compared to those induced by Am80-GCSF”. For the same molecule, the ROS production result with NB4 cells is “fails to induce ROS production”. Besides, the “growth rate of AML BM primary blasts” value with AML BM primary blasts (G-CSF vs. control, P<0.018) is given as “Higher growth rate”. Also, in the assay with AML BM primary blasts (compared to those treated with Am80 or ATRA), the “growth of non-APL AML patient blasts” value was “promotes the growth”.
